How the values were obtained:
[1] = system: ischemia reperfusion injury/nephrectomy (IR/Nx) model; experiment: Ischemia reperfusion injury/nephrectomy (IR/Nx) model: urinary albumin to creatinine ratio; format: in vivo, mouse
Description: An ischemia reperfusion injury/nephrectomy (IR/Nx) model is created in the mouse through temporary unilateral clamping of an artery in one kidney, which leads to tubule damage, inflammation, and fibrosis, followed by removal of the second kidney at a later timepoint. In this model, the acute kidney dysfunction phase is useful to test candidate agents for the treatment of acute kidney injury (i.e. up to about the first 5 days), and the later phases of kidney dysfunction are useful to model chronic fibrosis (i.e. after about the first 5 days).
Unilateral IR was induced for a period of 30 minutes. Treatment groups were as follows: sham IR procedure; IR with PBS administered subcutaneously; IR with mismatched control 25109 administered subcutaneously at a dose of 20 mg/kg; IR with anti-miR-21 compound 25070 administered subcutaneously at a dose of 20 mg/kg; and IR with anti-miR-21 compound 25923 administered subcutaneously at a dose of 20 mg/kg. PBS or anti-miR was administered on days 2, 3, 4, and 8 following IR. On day 8, the healthy kidney was removed by nephrectomy from each animal, and animals were sacrificed on day 9. Just prior to sacrifice, urine was collected by direct bladder puncture.
Urinary albumin to creatinine ratio was measured in the urine from each mouse. […] The geometric mean of the albumin to creatinine ratio in each group of mice was 16 μgAlb/mgCr (nephrectomy-only control), 127 μgAlb/mgCr (IR/Nx, PBS control), 140 μgAlb/mgCr (IR/Nx, 25109 control), 40 μgAlb/mgCr (IR/Nx, 25070), and 31 μgAlb/mgCr (IR/Nx, 25923). Blood urea nitrogen and serum creatinine levels were similar across all IR/Nx mice, and were elevated relative to nephrectomy-only control mice (data not shown).

IR/Nx model mice = experiment: Survival rate of IR/Nx model mice two days after nephrectomy; format: in vivo
Procedure: The survival rate of IR/Nx model mice two days after nephrectomy was determined across six different experiments to determine if administration of anti-miR-21 compounds increases survival. In the first three experiments, anti-miR-21 compound was administered on days 5, 6, and 7 after ischemia reperfusion injury, and nephrectomy occurred on day 10 or day 11. In the second three experiments, anti-miR-21 compound was administered on days 2, 3, and 4, and nephrecromy occurred on day 7.

[2] = In vivo stability of compound in kidney tissue after administration to mice; conditions: 7 days post-injection

AECSATCSAGTCSTGAUSAAGCSTAE (ACATCAGTCTGATAAGCTA; modified nucleosides, phosphorothioate linkages, chemistry not fully specified) [Compound 25070]
reduction in urinary albumin to creatinine ratio (significance) ([1]; 20 mg/kg subcutaneously on days 2, 3, 4, and 8): statistically significant reductions
geometric mean of the urinary albumin to creatinine ratio ([1]; 20 mg/kg subcutaneously on days 2, 3, 4, and 8, urine on day 9): 40 μgAlb/mgCr
Survival rate 2 days after Nx, Summary (day 10/11 Nx) (IR/Nx model mice; Studies 1-3 pooled, Nx day 10/11, dosing days 5, 6, and 7): 80% (29/36)
Survival rate 2 days after Nx, Summary (day 7 Nx) (IR/Nx model mice; Studies 4-6 pooled, Nx day 7, dosing days 2, 3, and 4): 69% (25/36)
Survival rate 2 days after Nx (IR/Nx model mice; Study 1, Nx Day 10, 30 mg/kg on days 5, 6, and 7 after IR): 91.7%
Survival rate 2 days after Nx (IR/Nx model mice; Study 2, Nx Day 11, 30 mg/kg on days 5, 6, and 7 after IR): 83.3%
Survival rate 2 days after Nx (IR/Nx model mice; Study 3, Nx Day 10, 20 mg/kg on days 5, 6, and 7 after IR): 66.6%
Survival rate 2 days after Nx (IR/Nx model mice; Study 4, Nx Day 7, 20 mg/kg on days 2, 3, and 4 after IR): 75%
Survival rate 2 days after Nx (IR/Nx model mice; Study 5, Nx Day 7, 20 mg/kg on days 2, 3, and 4 after IR): 66.7%
Survival rate 2 days after Nx (IR/Nx model mice; Study 6, Nx Day 7, 20 mg/kg on days 2, 3, and 4 after IR): 66.7%
survival rate two days after nephrectomy (IR/Nx model mice; first three experiments, dosing days 5, 6, 7, nephrectomy on day 10 or day 11): 80%
survival rate two days after nephrectomy (IR/Nx model mice; second three experiments, dosing days 2, 3, 4, nephrectomy on day 7): 69%
compound present in kidney tissue lacking the 3′-terminal nucleoside [2]: about 50%
